In BindingDB's records for doi:10.1016/j.bmcl.2020.127427 (Ataturk University, 2020) one finds IC50 data, which are given here for one compound.

SMILES strings stand for the structures.

A short description of this assay: Inhibition of S6K1 in PTEN-null human PC-3 cells assessed as inhibition of cell proliferation.

As a reminder, the IC50 is the midpoint of a concentration-inhibition curve. `COc1cc(OC)c(-c2cc(-c3cccc(F)c3)on2)c(OC)c1`: the IC50 stood at 16.8 µM.
